Literature values as cited in patent publication US20240293789A1, “Encapsulation of Functional Additives in Partially-Open Microcapsules” (priority 2023, published 2024).

Conditions: common solvents used for the encapsulated materials; reference table

Compound	solubility in water
CCOCC [diethyl ether]	7.5 g/100 g
CN(C)P(N(C)C)N(C)C [Hexamethylphosphorous triamide (HMPT), Hexamethylphosphorous triamide]	Miscible
C1CCCCC1 [cyclohexane]	0.0055 g/100 g
COCCOC [1,2-dimethoxy-ethane (glyme, DME), 1,2-dimethoxy-ethane]	Miscible
CCCCC [pentane]	0.04 g/100 g
COCCOCCOC [diethylene glycol dimethyl ether]	Miscible
CCCCCCC [heptane]	0.01 g/100 g

The next lines start with the values.

solubility in water	Compound
Miscible	CCO [ethanol]
Insoluble	Cc1ccccc1C [o-xylene]
8.7 g/100 g	CCOC(C)=O [ethyl acetate]
Insoluble	Cc1ccc(C)cc1 [p-xylene]
Insoluble	Cc1cccc(C)c1 [m-xylene]
0.0014 g/100 g	CCCCCC [hexane]
Miscible	OCC(O)CO [glycerin]
